From US20250320246A1, “3-AZASTEROID COMPOUNDS FOR THE TREATMENT OF DISEASES RELATED TO MITROCHONDRIAL FUNCTION” (NZP UK LIMITED, priority 2022, published 2025)
pEC50: −log10 of the molar value.

Columns and labels:
Type in all cases: cell-based, human
[1] = test system: sporadic PD patient fibroblasts; assay: Mitochondrial membrane potential (MMP, TMRM) in sporadic PD patient fibroblasts; conditions: Homo sapiens, Fibroblast, 24 h, 3 sporadic PD patient fibroblasts
Protocol: (§1) Primary fibroblast cells were cultured continuously in Glucose based medium (high glucose (4500 mg/L) Dulbecco's Modified Eagle's medium (DMEM; Sigma-Aldrich) supplemented with 10% fetal bovine serum (Sigma-Aldrich), 100 IU/mL penicillin, 100 μg/mL streptomycin (Lonza), 1 mM sodium pyruvate (Sigma-Aldrich) and 50 μg/mL uridine (Sigma-Aldrich)). Unless otherwise stated, 24 hours prior to analysis, the Glucose based medium was exchanged for Galactose based medium (glucose-free DMEM (Gibco) with the same supplementation and in addition, 5 mM galactose (Sigma-Aldrich)). All cells were assessed between passage 6-10.
Fibroblasts were cultured and plated into a greiner black 384 μClear® plate at a concentration of 1000 cells per well in 50 μl of media volume. The plates are left overnight in an incubator to allow the fibroblasts to adhere to the plate surface. The following morning the Glucose based medium is replaced with 25 μl of Galactose based medium. The plates were then dosed with the compounds using an ECHO® 550 liquid handling system. The wells were dosed to provide an 8-point concentration range of 0.06 nM-300 nM of compound. After dosing the wells are topped up with a further 25 μl of Galactose based medium and then left in an incubator for 24 hours. After 24 hours, the medium is removed from the wells and replaced with 25 μl phenol free Minimal essential medium supplemented with 10% FBS, 1% Penicillin-streptomycin, 1% sodium pyruvate, 0.1% uridine, 1% non-essential amino acids and 1% MEM vitamins with 80 nM TMRM (Sigma) and 10 μM Hoechst Stain (Sigma). The plate is returned to the incubator for another hour after which the stain medium is removed and replaced with 25 μl Phenol free MEM. The plate is then imaged using an IN Cell high content microscope (GE Healthcare) with fields of view per well in 2 channels, Cy3 excitation 542 nm, emission 604-64 nm; and the DAPI excitation 350 nm, emission 450-55 nm at 37° C. with CO2. After imaging the plate is disposed of and the images are Data mined using the INCell developer Toolkit (GE Healthcare).
After the assays had been repeated in triplicate per line and compound the data was then inputted into Graph pad Prism 7 software suite where a dose response curve is generated using the default “[Agonist] vs response(three parameters)” equation. […]

[2] = test system: sporadic PD patient fibroblasts; assay: Cellular ATP levels in sporadic PD patient fibroblasts, full ATP assay; conditions: Homo sapiens, Fibroblast, 24 h, 3 sporadic PD patient fibroblasts
Protocol: as §1
The ATP protocol is generally as described in Mortiboys et al 2008. Briefly, fibroblasts were cultured as and plated into white 384 well plates at a concentration of 5000 cells per well in 50 μl of media volume. The plates are left overnight in an incubator to allow the fibroblasts to adhere to the plate surface. The following morning the Glucose based medium is replaced with 25 μl of Galactose based medium. The plates were then spiked with the compounds using a ECHO 550 liquid handling system. The wells were dosed to provide an 8-point concentration range of 0.06 nM-300 nM of compound. After dosing the wells are topped up with a further 25 μl of Galactose based medium and then left in an incubator for 24 hours. Following this incubation, the medium is removed from the plate and the wells are washed twice with sterile PBS. The wells are filled with 25 μl of Sterile PBS followed by 12.5 μl of Lysis solution from the ATPlite™ Luminescence ATP detection assay system (Perkin Elmer), including 16 cell free wells to use as blank controls. The plate is then placed on a rotary shaker for 5 mins at 700 rpm. Following the shaking 12.5 μl of ATP substrate solution (Perkin Elmer) is added to each well and a further 5 min of shaking. The plate is then placed in darkness for 10 minutes prior to reading. Using a PHERAStar® plate reader, luminescence intensity is recorded. Following the ATP assay the plates are immediately assayed for DNA content in a CyQUANT® assay.
(§2) Immediately following The ATP assay DNA content is assessed with the CyQUANT® NF Cell Proliferation Assay Kit (ThermoFisher). CyQUANT® buffer is prepared immediately before the assay and is comprised of 1 μl CyQUANT® dye per ml×1 HBSS solution. 12.5 μl of CyQUANT® buffer is added to each well. Plate left in incubator for 1 hour then read on a PHERAStar© Plate reader with excitation at 497 nm and emission at 520 nm.
ATP Quantification for each well is determined using the following formula: […]
After the assays had been repeated in triplicate per line and compound the data was then inputted into Graph pad Prism 7 software suite where a dose response curve is generated using the default “[Agonist] vs response(three parameters)” equation.
From this EC50 values, lowest response and maximal response were taken and used to calculate the Geometric mean between the 5 different lines assessed.

[3] = test system: iNeurons from sPD patients; assay: Cellular ATP in iNeurons (dopaminergic neurons derived from sPD patients); conditions: for pEC50: Homo sapiens, Neuron, sPD patient iNeurons, dosing every 3 days for last 12 days of differentiation; for ATP normalisation (% of controls): sPD patient iNeurons treated, untreated sPD patients 50
Protocol: (§3) The fibroblasts lines and iNPC lines have previously been characterised and published in Carling et al, 2020.
(§4) Briefly, iNPCs are plated in a 6-well plate and cultured for 2 days in DMEM/F-12 medium with Glutamax™ supplemented with 1% NEAA, 2% B27 (Gibco) and 2.5 μM of DAPT. On day 3, DAPT is removed and the medium is supplemented with 1 μM smoothened agonist (SAG) and FGF8 (75 ng/ml) for additional 10 days. Neurons are replated at this stage. Subsequently SAG and FGF8 are withdrawn and replaced with BDNF (30 ng/ml), GDNF (30 ng/ml), TGF-b3 ([…]) and dcAMP (2 mM, Sigma) for 15 days, as previously described Schwartzentruber et al, 2020 and Carling et al, 2020. Dopaminergic neurons were treated with compounds at concentrations of 0.1 nM, 1 nM, 3 nM, 10 nM, 30 nM and 100 nM dosing every 3 days for the last 12 days of differentiation.
(§5) iNeurons were treated every 3 days for the last 12 days of the differentiation protocol. Cells are plated in 96 well plates; for live imaging cells are incubated for one hour at 37° C. with 80 nM tetramethlyrhodamine (TMRM), 1 μM LysoTracker® Green (Invitrogen) and Hoechst Stain solution (Sigma) at 1 μM before imaging using Opera Phenix™. Cellular ATP measurements are undertaken using ATPlite kit (Perkin Elmer) as per manufacturer's instructions. Mitochondrial reactive oxygen species generation was assessed using mitochondrial NpFR2 (probe; a kind gift from Dr Liz New, University of Sydney, Australia) at 20 μM and Hoechst stain solution at 1 μM for 30 mins at 37° C., then the dyes are removed and cells images using Opera Phenix™. Images generated from the live imaging experiments were analysed using Harmony® (Perkin Elmer software). We developed protocols in order to segment nucleus, cell boundary and processes, mitochondria, lysosomes, autophagosomes. We only analysed the z projection images collected from the z stacks.

[4] = test system: iNeurons from sPD patients; assay: Mitochondrial membrane potential (MMP) in iNeurons from sPD patients; conditions: for pEC50: Homo sapiens, sPD patient iNeurons, dosing every 3 days for last 12 days of differentiation; for MMP normalisation (% of controls): sPD patient iNeurons treated, untreated sPD patients 52
Protocol: as §3, §4, §5

[5] = test system: iNeurons from sPD patients; assay: Mitochondrial reactive oxygen species (ROS) in iNeurons from sPD patients; conditions: sPD patient iNeurons treated; untreated sPD patients 115
Protocol: as §3, §4, §5

[6] = test system: sporadic PD patient fibroblasts; assay: Cellular ATP levels in sporadic PD patient fibroblasts, Preliminary ATP assay; conditions: Homo sapiens, Fibroblast, 24 h, % of vehicle treated sPD fibroblasts, 3 sporadic PD patients
Protocol: In some cases, a preliminary ATP protocol was used in which EC50 was not determined. The preliminary ATP protocol is generally as described in Mortiboys et al 2008. Briefly, fibroblasts were cultured and plated into white, clear-bottom 384 well plates at a concentration of 4000 cells per well in 50 μl of media volume. The plates are left overnight in an incubator to allow the fibroblasts to adhere to the plate surface. The following morning the Glucose based medium is replaced with 25 μl of Galactose based medium. The cells were then dosed with 100 nM and 1 μM concentrations of the compounds using a ECHO 550 liquid handling system. After dosing the wells are topped up with a further 25 μl of Galactose based medium and then left in an incubator for 24 hours. Following this incubation, the medium is removed from the plate and the wells are washed twice with sterile PBS. The wells are filled with 20 μl of Sterile PBS followed by 10 μl of Lysis solution from the ATPlite™ Luminescence ATP detection assay system (Perkin Elmer), including 14 cell free wells to use as blank controls. The plate is then placed on a rotary shaker for 10 mins at 700 rpm. Following the shaking 10 μl of ATP substrate solution (Perkin Elmer) is added to each well and a further 5 min of shaking. The plate is then incubated in the dark for 10 minutes prior to reading. Using a FLUOstar® Omega plate reader, luminescence intensity is recorded. Following the ATP assay the plates are immediately assayed for DNA content in a CyQUANT® assay.
as §2, with “of 2” for “of 1”, “solution. 10” for “solution. 12.5”, “well. Cell plates were then incubated” for “well. Plate left in incubator”, “hour before being” for “hour then”, “a FLUOStar®” for “a PHERAStar©”
The ATP Quantification for each well is determined as set out above.

[7] = test system: iNeurons from sPD patients; assay: Neuronal morphology (elongation) in iNeurons from sPD patients; conditions: sPD patient iNeurons treated; untreated sPD patients 48
Protocol: as §3, §4
(§6) Cells are plated into 96 well plates and fixed using 4% paraformaldehyde for 30 minutes. After PBS washes cells are permeabilised using 0.1% Triton™ X-100 for 10 minutes and blocked using 5% goat serum for 1 hour. Cells are incubated with primary antibodies βIII tubulin (Millipore); activated caspase 3 (Cell Signaling); at 4° C. for 16 hours. Cells are washed using PBS-Tween® and incubated with Alexa Fluor™-conjugated secondary antibodies 488 and 568 (Invitrogen) and Hoescht (Sigma) 1 μM prior to imaging. Imaging was performed using the Opera Phenix™ high content imaging system (Perkin Elmer).
iNeurons were treated every 3 days for the last 12 days of the differentiation protocol. […] Mitochondrial reactive oxygen species generation was assessed using mitochondrial NpFR2 (probe; a kind gift from Dr Liz New, University of Sydney, Australia) at 20 μM and Hoechst stain solution at 1 μM for 30 mins at 37° C., then the dyes are removed and cells images using Opera Phenix™. Images generated from the live imaging experiments were analysed using Harmony® (Perkin Elmer software). […] We only analysed the z projection images collected from the z stacks.

[8] = test system: iNeurons from sPD patients; assay: Activated caspase 3 levels (apoptosis) in iNeurons from sPD patients; conditions: sPD patient iNeurons treated; untreated sPD patients 162
Protocol: as §3, §4, §6

Row | pEC50 [3] | pEC50 [4] | Compound | pEC50 ([1]; 8-point range 0.06 nM-300 nM) | Emax ([1]; max response with highest dose of compound (300 nM), read-out: MMP % of vehicle, top %) [%] | activity at 60 pM ([1]; max response with lowest dose of compound (0.06 nM), read-out: MMP % of vehicle, bottom %) [%] | pEC50 ([2]; 8-point range 0.06 nM-300 nM) | Emax at 0.3 µM ([2]; max response with highest dose of compound (300 nM), read-out: ATP % of vehicle, top %) [%] | activity at 60 pM ([2]; max response with lowest dose of compound (0.06 nM), read-out: ATP % of vehicle, bottom %) [%] | ATP normalisation (% of controls) [3] | MMP normalisation (% of controls) [4] | ROS normalisation (% of controls) [5] | activity at 0.1 µM ([6]; 100 nM, read-out: Average ATP Response 100 nM) [%] | activity at 1 µM ([6]; 1 μM, read-out: Average ATP Response 1 μM) [%] | Neuronal morphology (elongation; % controls) [7] [% controls] | Activated caspase 3 levels [8]
1 | 8.19 | 7.99 | C[C@H](CCC(=O)O)[C@H]1CC[C@H]2[C@@H]3[C@@H](O)C[C@@H]4CNCC[C@]4(C)[C@H]3CC[C@]12C.Cl [Compound 28a, 3-Aza-7β-hydroxy-5β-cholan-24-oic acid hydrochloride salt] | 8.34 | 120 | 96.8 | 7.96 | 137 | 98.3 | 89.6 % of controls | 71 % of controls | 111 % of controls |  |  |  | 
2 | 8.30 | 8.14 | C[C@H](CCC(=O)O)[C@H]1CC[C@H]2[C@@H]3[C@@H](O)C[C@@H]4C[C@H](O)CC[C@]4(C)[C@H]3CC[C@]12C [UDCA, ursodeoxycholic acid, reference compound] |  |  |  |  |  |  | 82 % of controls | 73 % of controls | 110 % of controls | 105 | 98.9 | 64 | 143 % of level in iNeurons from Controls
